{
  "source": "patent EP2681209B1",
  "about": "“COMPOUNDS AND METHODS FOR THE TREATMENT OF PAIN AND OTHER DISORDERS” (Aquilus Pharmaceuticals, Inc, priority 2011, dated 2012)",
  "test_system": "CD-1 mice",
  "test": "Naloxone-precipitated morphine withdrawal mouse study, intrathecal administration",
  "assay_type": "in vivo",
  "details": "i.t. 10 µl/mouse every 8 hours for 2.5 days with escalating IP morphine; naloxone 1 mg/kg s.c.; compared to control and vehicle",
  "excerpt": "One can measure the effects of intrathecal (i.t.) or intraparitoneal (i.p.) administration of a matrix metallorproteinase (MMP) inhibitor in a mouse model of morphine analgesia, tolerance and withdrawal. The purpose of which is to measure the effects of a MMP inhibitor on 1) attenuating morphine tolerance in mice and 2) withdrawal behavior in naloxone-precipitated morphine withdrawal in mice. The animal model which was developed in the 1960's and refined in the early 1970's utilizes the opioid antagonist, naloxone to rapidly block the µ-opioid receptor to \"precipitate\" withdrawal behavior in rodents (Zachariou, V. et al.; Essential role for RGS9 in opiate action, PNAS, 100(23), p 13656-13661, (2003)). […]\nDrug Administration & Morphine withdrawal Studies: The matrix metalloproteinase (MMP) inhibitors were dissolved in phosphate buffered saline (PBS) and dimethylsulfoxide (DMSO) and diluted in PBS (final concentration of DMSO for intrathecal administration was 10%). […] Two hours after the last morphine injection, naloxone (1 mg/kg) was administered s.c. Withdrawal behaviors were then monitored for 30 min, 1 hr after the naloxone injection. […]\nMMP inhibitor effects on morphine withdrawal For testing the morphine withdrawal-like behavioral signs following intrathecal MMP inhibitor administration, the withdrawal symptoms were monitored for 30 minutes 1-2 h after naloxone administration. […]",
  "note": "Entries after “also recorded” stand apart in the source; their conditions may differ.",
  "data": [
    {"smiles": "[2H]C([2H])([2H])c1ccc(C#Cc2ccc(S(=O)(=O)N[C@H](Cc3c[nH]c4ccccc34)C(=O)O)s2)cc1", "note": "[Compound 10, (R)-3-(1H-Indol-3-yl)-2-[5-(4-trideuteromethyl-phenylethynyl)-thiophene-2-sulfonylamino]-propionic acid-(D3, 98%)]", "values": [
      {"measurement": "morphine withdrawal behavior (behavioral signs, overall opiate withdrawal score)", "result": "able to reduce overall morphine withdrawal behavior; also recorded: significantly attenuates behavioral signs of naloxone-precipitated morphine withdrawal"}
    ]}
  ]
}
